Structures can show the parent of a compound that is named as a salt.
Key:
Format in all cases: physicochemical
[1] = Moisture sorption/desorption studies (hygrostat, storage at different temperatures and relative humidity); design: water content (Table VI): unit not given here; details: for water content (Table VII): 11.2% RH, % on the weight of compound 1b
Procedure: The determination of the sorption isotherms was carried out in a hygrostat.
At suitable intervals, the sample was weighed by means of a sample balance. The atmosphere in the hygrostat and therefore around the sample of compound 1a (1b) and 2a (2b) was conditioned and kept by a saturated solutions of a suitable salt:
Na Cl saturated solution 75.3% RH/25° C. 74.8% RH/37° C.
KNO3 saturated solution 93.7% RH/25° C. 90.0% RH/37° C.
At the end of the experiment, after completing the hysteresis, that is the adsorption--desorption cycle of humidity, the compound was assayed for the title and degradation products by TLC and HPLC, the physical state by DSC and water content by TGA.

[2] = Milling studies (FRITSCH Pulverisette 14 Rotor Speed Mill)
Procedure: The milling process was performed by the FRITSCH Pulverisette 14 Rotor Speed Mill supplied with circular sieve stainless steel with trapezoidal 0.080 mm diameter openings. The samples were passed through the mill twice at 20.000 rpm motor speed. The sample is assayed for title and degradation products by TLC and HPLC, physical state by DSC, water content by TGA, particle size distribution by Mercury Instrusion Porosimetry. The mi 11ed compounds are formulated in capsules and tablets at very low dose level (0.5 mg) by direct mixing and direct compression manufacturing method, respectively.

[3] = Water loss on desiccation under vacuum; details: between room temperature and 60° C. under vacuum, most preferably 40° C., 0.1 mm Hg, 24 hours; in words
Procedure: Compounds 2a and 2b may be prepared by dissolving the compounds 1a and 1b, as free base, in a hot aqueous solvent, preferably a hot aqueous alkanol, by adding the required amount of gaseous hydrogen chloride, filtering the resulting solution and letting it cool to room temperature. In a preferred embodiment of the process according to the invention, compound 2a is prepared by using, as an hot aqueous alkanol, hot 85% aqueous ethanol. The crystals of compound 2a may be collected by vacuum filtration and are washed with a small amount of aqueous ethanol. In a preferred embodiment of the process according to the invention, compound 2b is prepared by using, as an hot aqueous alkanol, hot 95% aqueous isopropanol. The crystals of compound 2b may be collected by vacuum filtration and are washed with a small amount of aqueous isopropanol. […] Water content may be measured by usual techniques such as the Karl Fischer test. Alternatively, compounds 2a and 2b may be conveniently prepared by dissolving the anhydrous form of compounds 1a and 1b, as hydrochloride, in hot aqueous ethanol, preferably 85% ethanol (respectively in hot aqueous isopropanol, preferably 95% isopropanol) and allowing to cool the solution at room temperature; crystals of compound 2 a (respectively 2b), separated from the cooled solution, are collected by vacuum filtration and manipulated as previously described. […]

[4] = Accelerated stability tests in tablets and capsules
Source text: (§1) Drug stability in these final compositions may be measured in accelerated stability tests or in long term real time stability tests. In accelerated stability tests, the above pharmaceutical compositions are exposed at high temperatures at different degrees of relative humidity for a period of time. Such tests are considered to be indicative of the stability of the composition at normal conditions. In long term real time stability studies the final compositions are exposed to normal conditions of storage at ambient temperatures at different degrees of relative humidity.
(*)according to H. Leven Berger Pharm. Act. Helv. 50 (1975) 88-91 it is
equivalent to 2 years storage at room temperature. Tablets and capsules
are packaged in PVC/PVDC blister with aluminium foil.
(*)according to "Guidelines for stability studies for Human Drugs and
Biologics" (1987) (USA/FDA) it is equivalent to 2 years at room
temperature. Tablets and capsules are packaged in PVC/PVDC blister with […]

[5] = Long-term real time stability tests in tablets and capsules
Source text: as §1
Tablets and capsules are packaged in PVC/PVDC blister with aluminium foil

SMILES: CCn1c(=O)n(C(=O)N[C@H]2C[C@H]3CC[C@@H](C2)N3C)c2ccccc21 [Compound 2b, Endo-3-ethyl-2,3-dihydro-N-(8-methyl-8-azabicyclo-[3.2.1]oct-3-yl)-2-oxo-1H-benzimidazole-1-carboxamide, hydrochloride monohydrate]
- stability in condition of storage [1]: stable
- water content in conditions of extreme dryness ([1]; 11 RH, 37° C., in words): not affected
- water content (Table VII) ([1]; 37° C., 1 h): 5.00%
- water content (Table VII) ([1]; 37° C., 2 h): 4.85%
- water content (Table VII) ([1]; 37° C., 4 h): 4.80%
- water content (Table VII) ([1]; 37° C., 6 h): 4.70%
- water content (Table VII) ([1]; 37° C., 6 days): 4.70%
- water content (Table VII) ([1]; 37° C., time 0): 5.02%
- water content (Table VI) ([1]; 37° C., 49.2% RH, 2 h, hydrochloride monohydrate): 5.03
- water content (Table VI) ([1]; 37° C., 49.2% RH, 4 h, hydrochloride monohydrate): 5.04
- water content (Table VI) ([1]; 37° C., 49.2% RH, 6 h, hydrochloride monohydrate): 5.00
- water content (Table VI) ([1]; 37° C., 49.2% RH, 1 d, hydrochloride monohydrate): 5.00
- water content (Table VI) ([1]; 37° C., 49.2% RH, 4 d, hydrochloride monohydrate): 5.04
- water content (Table VI) ([1]; 37° C., 49.2% RH, 10 d, hydrochloride monohydrate): 4.95
- water content (Table VI) ([1]; 37° C., 49.2% RH, 30 d, hydrochloride monohydrate): 5.02
- water content (Table VI) ([1]; 37° C., 49.2% RH, time 0, hydrochloride monohydrate): 5.00
- water content (Table VI) ([1]; 37° C., 74.8% RH, 2 h, hydrochloride monohydrate): 5.05
- water content (Table VI) ([1]; 37° C., 74.8% RH, 4 h, hydrochloride monohydrate): 5.05
- water content (Table VI) ([1]; 37° C., 74.8% RH, 6 h, hydrochloride monohydrate): 5.07
- water content (Table VI) ([1]; 37° C., 74.8% RH, 1 d, hydrochloride monohydrate): 5.07
- water content (Table VI) ([1]; 37° C., 74.8% RH, 4 d, hydrochloride monohydrate): 5.07
- water content (Table VI) ([1]; 37° C., 74.8% RH, 10 d, hydrochloride monohydrate): 4.97
- water content (Table VI) ([1]; 37° C., 74.8% RH, 30 d, hydrochloride monohydrate): 5.00
- water content (Table VI) ([1]; 37° C., 74.8% RH, time 0, hydrochloride monohydrate): 5.00
- moisture absorption ([1]; different temperatures and relative humidity, in words, hydrochloride monohydrate): do not absorb moisture
- particle size reduction (milling efficiency) ([2]; Mercury Porosimetry Analysis, in words): same rank order
- humidity content ([2]; after milling, hydrochloride monohydrate): 4.8%
- loss of water content on desiccation [3]: without any appreciable loss of water content
- stability in tablets and capsules [4]: better stability
- stability in tablets and capsules [5]: better stability
